From the NIST ThermoML archive (doi:10.1021/je300974g)

Key:
[1] = 101.33 kPa, Liquid, Vibrating tube method
[2] = xn = mol fraction of the nth substance listed; details: 101 kPa, Liquid, Vibrating tube method

CCNC=O [N-ethylformamide]
[1]
Details	mass density [kg/m3]
293.15 K	951.59
298.15 K	947.48
303.15 K	943.29
308.15 K	939.04
313.15 K	934.78

CCNC=O [N-ethylformamide] + CCCOC(C)=O
mass density [kg/m3], [2]
Details	x1 = 0.1294	x1 = 0.2456	x1 = 0.3565	x1 = 0.4694	x1 = 0.5596	x1 = 0.6587	x1 = 0.7478	x1 = 0.8363	x1 = 0.9182
293.15 K	892.25	899.54	906.52	913.89	919.91	926.72	933	939.47	945.56
298.15 K	887.29	894.73	901.8	909.26	915.35	922.25	928.63	935.19	941.36
303.15 K	882.35	889.93	897.09	904.67	910.86	917.78	924.29	930.93	937.11
308.15 K	877.39	885.05	892.4	900.06	906.31	913.38	919.92	926.57	932.85
313.15 K	872.28	880.14	887.6	895.34	901.71	908.84	915.46	922.22	928.54

CCCC(C)=O [pentan-2-one]
[1]
Details	mass density [kg/m3]
293.15 K	807.47
298.15 K	802.46
303.15 K	797.53
308.15 K	792.52
313.15 K	787.44

CCCOC(C)=O [propyl ethanoate]
[1]
Details	mass density [kg/m3]
293.15 K	887.97
298.15 K	882.21
303.15 K	876.54
308.15 K	870.81
313.15 K	864.95

C1CCOCC1 [tetrahydropyran]
[1]
Details	mass density [kg/m3]
293.15 K	884.08
298.15 K	878.95
303.15 K	873.79
308.15 K	868.67
313.15 K	863.43
